US12295973B2 (Fred Hutchinson Cancer Center, priority 2017, dated 2025)
Where a SMILES comes first, the peptide text is derived from it. [ ]: non-standard residue; d: D form. The star is where a group is joined. dPhe(4-NHCONH2) = NC(=O)Nc1ccc(C[C@@H](N)C(=O)O)cc1; Dihydroorotyl(S) = O=C1C[C@@H](C(=O)*)NC(=O)N1; dPhe(4-Cl) = N[C@H](Cc1ccc(Cl)cc1)C(=O)O; Phe(4-NH2) = Nc1ccc(C[C@H](N)C(=O)O)cc1; d2Nal = N[C@H](Cc1ccc2ccccc2c1)C(=O)O; Lys(iPr) = CC(C)NCCCC[C@H](N)C(=O)O; d3Pal = N[C@H](Cc1cccnc1)C(=O)O

How the values were obtained:
Assay type in all cases: in vivo, mouse
[1] = system: LT-HSCs; assay: Cell apoptosis by AnnexinV/DAPI staining after radiation exposure; details: vs vehicle
From the text: (§1) To further validate this hypothesis, two additional models were used to force HSCs out of their quiescence phase, Poly I:C and sub-lethal dose of total body irradiation (SL-TBI)^35,42,43. To eliminate any potential effects of downstream sex steroids on HSCs, all cohorts of mice in these studies had been surgically castrated.

[2] = system: LT-HSCs; assay: Cell cycle status of LT-HSCs in Poly I:C and SL-TBI models, surgically castrated mice
Description: as §1
Reagents: Degarelix (as acetate), a LHRH-Ant (Firmagon), was resuspended in sterile water for injection and administered S.C. to mice at a dose of 40 mg/kg. To evaluate the radiomitigative effect of LHRH-Ant on survival, mice were treated subcutaneously (S.C.) with a single injection of the LHRH-Ant or a saline control solution (PBS). Degarelix was purchased from the Memorial Sloan-Kettering Cancer Center Pharmacy. […] LH from human pituitary (SIGMA) was resuspended in PBS for in vitro studies. MDV3100 (selleckchem) was resuspended in a mixture of 45% PBS, 45% PEG and 10% DMSO and administered daily to mice by oral gavage at a dose of 10 mg/kg. 5-FU (InvivoGen) was administered to mice intraperitoneally (I.P.) at a dose of 150 mg/kg once every 7 days consecutively for 3 times as previously described^34,47,49. […]

[3] = system: functional HSCs; assay: Adapted competitive repopulation functional assay (BM and spleen cells of treated L-TBI mice transplanted into irradiated hosts); details: cells collected day 14 after L-TBI; vs recipients of cells from vehicle-treated mice
Description: To investigate the specific regenerative effects mediated by LHRH-Ant treatment on the hematopoietic stem and progenitor cell (HSPC) compartment, BM were analyzed at several time points after L-TBI. […] To determine hematopoietic functional potential, colony-forming unit activity was next quantified to determine the effects of LHRH-Ant on the recovery of committed hematopoietic progenitor cells. […] Consistent with these functional findings, on day 14 after L-TBI, expansion of LSKs as well as their downstream progenitors in mice given LHRH-Ant were found (FIGS. 2F, 2G). […] However, given the changes in HSC phenotype after radiation, the standard competitive repopulation functional assay was adapted to evaluate the presence and relative quantity of functional HSCs after L-TBI. Specifically, all cells from the BM and spleen (to account for potential changes to circulating HSCs) were collected and transplanted from vehicle or LHRH-Ant treated mice at day 14 after L-TBI into irradiated hosts (along with a rescue dose of congenic WBM cells to ensure survival). […]
Bone marrow transplant: In the competitive BM transplant, whole BM from CD45.2+ (vehicle or LHRH-Ant) donors and were collected and transplanted into lethally irradiated CD45.1+ mice (1100 cGy TBI, split dose) along with 2.5×10^5 CD45.1+ competitors, through tail vein injection. Donor chimerism was monitored monthly after transplant. […]

[4] = system: hematopoietic stem and progenitor cell (HSPC) compartment; assay: Bone marrow analysis of the HSPC compartment after L-TBI (cellularity, flow cytometry)
Description: To investigate the specific regenerative effects mediated by LHRH-Ant treatment on the hematopoietic stem and progenitor cell (HSPC) compartment, BM were analyzed at several time points after L-TBI. […] To determine hematopoietic functional potential, colony-forming unit activity was next quantified to determine the effects of LHRH-Ant on the recovery of committed hematopoietic progenitor cells. […] Consistent with these functional findings, on day 14 after L-TBI, expansion of LSKs as well as their downstream progenitors in mice given LHRH-Ant were found (FIGS. 2F, 2G). […] However, given the changes in HSC phenotype after radiation, the standard competitive repopulation functional assay was adapted to evaluate the presence and relative quantity of functional HSCs after L-TBI. Specifically, all cells from the BM and spleen (to account for potential changes to circulating HSCs) were collected and transplanted from vehicle or LHRH-Ant treated mice at day 14 after L-TBI into irradiated hosts (along with a rescue dose of congenic WBM cells to ensure survival). This approach allowed detection of differences in the total number of residual HSCs which would be reflected by a functional difference in hematopoietic reconstitution.
Flow cytometry and cell cycle analysis: Monoclonal antibodies recognizing the following markers were used for flow cytometric analyses and cell sorting of murine cells (LSR II or FACSAria III, BD Biosciences): (from BD Pharmingen) c-kit (2B8), Sca-1 (D7), CD11b (M1/70), CD11c (HL3), CD19 (ID3), CD3ϵ (145-2C11), CD34 (RAM34), CD45 (30-F11), CD45.1 (A20), CD45.2 (104), CD48 (HM48-1), CD62L (MEL-14), CD135 (A2F10.1), Gr-1 (RB6-8C5), NK1.1 (PK136), TER-119 (TER-119); (from eBioscience) CD127 (A7R34), CD150 (mShad150); (from Invitrogen) B220 (RA3-6B2) and streptavidin (N/A). The mouse lineage antibody cocktail included anti-CD3, anti-CD4, anti-CD8α, anti-CD19, anti-CD11 b, anti-CD11c, anti-Gr-1, anti-NK1.1, and anti-TER119. The following antibodies were used for flow cytometry analyses of human samples, CD49f (eBioGoH3), CD45RA (L48), CD34 (581), CD38 (HIT2). CD90 (5E10), CD10 (H110a). The human lineage antibody cocktail included anti-CD3, anti-CD14, anti-CD16, anti-CD19, anti-CD20, anti-CD56. To detect human LHCGR a polyclonal anti-LHCGR (Alomone, cat #:ALR-010) was used. For intracellular Ki67/DAPI staining, BM cells were stained with surface markers, fixed, and permeabilized using the Fixation/Permeabilization kit (cat. 00552100 ebioscience) and permeabilization buffer (cat. 008333 ebioscience). Cells were then incubated with Ki67-Alexa 700 (B56) (from BD Biosciences) for 45 minutes at 4C. After centrifugation DAPI (5 μg/ml) was added to cells and allowed to incubate for at least 30 min at RT before analysis. […]

In the case of `CC(=O)N[C@H](Cc1ccc2ccccc2c1)C(=O)N[C@H](Cc1ccc(Cl)cc1)C(=O)N[C@H](Cc1cccnc1)C(=O)N[C@@H](CO)C(=O)N[C@@H](Cc1ccc(NC(=O)[C@@H]2CC(=O)NC(=O)N2)cc1)C(=O)N[C@H](Cc1ccc(NC(N)=O)cc1)C(=O)N[C@@H](CC(C)C)C(=O)N[C@@H](CCCCNC(C)C)C(=O)N1CCC[C@H]1C(=O)N[C@H](C)C(N)=O` [LHRH-Ant, Degarelix] (Ac-[d2Nal][dPhe(4-Cl)][d3Pal]S[Phe(4-NH2)](Dihydroorotyl(S))[dPhe(4-NHCONH2)]L[Lys(iPr)]P[dA]-NH2), the “proportion of live LT-HSCs” value [1] is reported as “significantly increased the proportion of live LT-HSCs”, the “LT-HSCs in G0” value ([2]; Poly I:C model) is reported as “retained significantly more LT-HSCs in G0” and the “LT-HSCs in G0” value ([2]; SL-TBI model) is reported as “retained significantly more LT-HSCs in G0”. The “hematopoietic reconstitution of host mice” value [3] was “significantly better hematopoietic reconstitution”, the “total BM cellularity” value ([4]; day 7 after L-TBI, vs vehicle) was “no difference” and the “LSKs and their downstream progenitors” value ([4]; day 14 after L-TBI) was “expansion”. For the same molecule, the LT-HSCs number ([4]; day 14 after L-TBI) was “significantly more LT-HSCs” and the BM cellularity ([4]; day 14 after radiation, vs vehicle) was “started to separate significantly from the vehicle group by day 14”.
